Measurements: patent publication US20150018403A1, “FLUORENE-AMIDE COMPOUNDS AND PHARMACEUTICAL USE THEREOF” (JAPAN TOBACCO INC., priority 2013, published 2015)

Assays:
[1] = target: T1, human PDHK2 (hPDHK2) (Homo sapiens, UniProt Q15119); assay: Inhibitory action of PDHK2 activity in vitro (residual PDH activity after kinase reaction); assay type: biochemical; settings: PDH/hPDHK2 complex, 45 min kinase reaction at room temperature; read-out: hPDHK2 IC50
T1 construct: made in house; host or cells: Escherichia coli BL21(DE3), pET17b vector
Procedure: The inhibitory action of PDHK activity was assessed indirectly by measuring the residual PDH activity after kinase reaction in the presence of a test compound.
In the case of human PDHK2 (hPDHK2, Genbank Accession No. BC040478.1), modified hPDHK2 cDNA wherein FLAG-Tag sequence was added to the N terminus of hPDHK2 cDNA clone (pReceiver-M01/PDK2-GeneCopoeia) was prepared by PCR and cloned into a vector (pET17b-Novagen). The recombinant construct was transformed into Escherichia coli (DH5α-TOYOBO). The recombinant clones were identified, and plasmid DNA was isolated and subjected to the DNA sequence analysis. One clone which had the expected nucleic acid sequence was selected for expression work.
For expression of hPDHK2 activity, Escherichia coli strain BL21(DE3) cells (Novagen) were transformed with the pET17b vector containing modified hPDHK2 cDNA. The Escherichia coli were grown to an optical density 0.6 ([…]) at 30° C. Protein expression was induced by the addition of 500 μmol/L isopropyl-β-thiogalactopyranoside. The Escherichia coli were cultured at 30° C. for 5 hr and harvested by centrifugation. Resuspension of the Escherichia coli paste was disrupted by a microfluidizer. FLAG-Tagged protein was purified using FLAG affinity gel. The gel was washed with 20 mmol/L HEPES-NaOH, 500 mmol/L sodium chloride, 1% ethylene glycol, and 0.1% Pluronic F-68 (pH 8.0), and the binding protein was eluted with 20 mmol/L HEPES-NaOH, 100 μg/mL FLAG peptide, 500 mmol/L sodium chloride, 1% ethylene glycol, and 0.1% Pluronic F-68 (pH 8.0). The eluted fractions containing FLAG-Tagged protein were pooled, dialyzed against 20 mmol/L HEPES-NaOH, 150 mmol/L sodium chloride, 0.5 mmol/L EDTA, 1% ethylene glycol, and 0.1% Pluronic F-68 (pH 8.0), and preserved at −80° C.
0.05 U/mL PDH and 0.8 μg/mL hPDHK2 were mixed in a buffer (50 mmol/L 3-morpholinopropanesulfonic acid (pH 7.0), 20 mmol/L dipotassium hydrogen phosphate, 60 mmol/L potassium chloride, 2 mmol/L magnesium chloride, 0.4 mmol/L EDTA, and 0.2% Pluronic F-68, 2 mmol/L dithiothreitol), and the mixture was incubated at 4° C. overnight to obtain a PDH/hPDHK2 complex. The test compounds were diluted with DMSO. […] DMSO (1.5 μL) was added to control wells instead of the test compound. […] The mixture was incubated at room temperature for 90 min, and the residual PDH activity was measured. The absorbance at 340 nm before and after PDH reaction was measured using a microplate reader to detect NADH produced by the PDH reaction. The hPDHK2 inhibition rate (%) of the test compound was calculated from the formula [{(PDH activity of test compound−PDH activity of control)/PDH activity of blank−PDH activity of control)}×100].

[2] = system: tissue PDH activity; assay: Ex vivo PDH activation assay (liver and epididymal adipose tissue mitochondrial fractions after oral dosing); assay type: in vivo, Sprague-Dawley rats; settings: 3 mg/kg, rat
Procedure: The action of test compound on tissue PDH activity was evaluated. NADH production was detected via p-iodonitrotetrazolium violet (INT)-coupled system to measure PDH activity.
Normal male Sprague-Dawley rats were randomly allocated m to the vehicle group and the test compound groups. The vehicle (0.5% aqueous methylcellulose solution, 5 mL/kg) or the test compound was orally administered to the rats. At 5 or 20 hr after administration, the rats were anesthetized with an intraperitoneal injection of sodium pentobarbital (60 mg/kg), and liver slices and epididymal adipose tissues were collected.
(§1) To the liver slices were rapidly added 9 volumes of ice-cold homogenization buffer (0.25 mol/L sucrose, 5 mmol/L tris(hydroxymethyl)aminomethane hydrochloride (pH 7.5), 2 mmol/L EDTA), and the mixtures were homogenized using a Polytron homogenizer. The homogenates were centrifuged at 600×g, 4° C. for 10 min to obtain the supernatant. The supernatants (1 mL) were centrifuged at 16,000×g, 4° C. for 10 min to collect the precipitates. The precipitates were washed by resuspension in the homogenization buffer (1 mL) and centrifuged in the same manner. The precipitates were frozen with liquid nitrogen and stored at −80° C. as the liver mitochondrial fraction.
as §1, with “adipose tissues” for “liver slices”, “3” for “9”, “of an” for “of”, “buffer,” for “buffer (0.25 mol/L sucrose, 5 mmol/L tris(hydroxymethyl)aminomethane hydrochloride (pH 7.5), 2 mmol/L EDTA),”, “supernatants” for “supernatants (1 mL)”, “adipose tissue” for “liver”
The mitochondrial fractions were thawed and suspended with the sample buffer (0.25 mol/L sucrose, 20 mmol/L tris(hydroxymethyl)aminomethane hydrochloride (pH 7.5), 50 mmol/L potassium chloride, and 1 mL/L 4-(1,1,3,3-tetramethylbutyl)phenyl-polyethylene glycol (Triton X-100)). Active PDH activity (PDHa activity) and total PDH activity (PDHt activity) were measured to evaluate the PDH activity. For the measurement of the PDHt activity, equal amounts of the mitochondrial suspension and the activation buffer (0.25 mol/L sucrose, 20 mmol/L tris(hydroxymethyl)aminomethane hydrochloride (pH 7.5), 50 mmol/L potassium chloride, 1 mL/L Triton X-100, 4 mmol/L calcium chloride, 40 mmol/L magnesium chloride, 10 mmol/L sodium dichloroacetate) were mixed, and the mixtures were incubated at 37° C. for 10 min. Forty microliters of the mitochondrial suspensions diluted with a sample buffer were added to a 96-well microplate for activity measurement and blank measurement. Then 180 μL of the reaction mixture (0.056 mmol/L potassium phosphate buffer (pH 7.5), 5.6 mmol/L DL-carnitine, 2.8 mmol/L NAD, 0.22 mmol/L thiamin pyrophosphate, 0.11 mmol/L Coenzyme A, 1.1 mL/L Triton X-100, 1.1 mmol/L magnesium chloride, 1.1 g/L bovine serum albumin, 0.67 mmol/L INT, 7.2 μmol/L phenazine methosulfate, 28 mmol/L sodium oxamate) was added to each well, and then 20 μL of 50 mmol/L sodium pyruvate for activity measurement or water for blank measurement were added. The mixtures were incubated at room temperature under shading. The absorbances at 500-750 nm, which were attributable to reduction of INT, the final electron acceptor, were measured using a microplate reader over time and the changes in the absorbance were calculated. The PDH activity was calculated by subtraction of the change in absorbance of the blank well from that of the activity measurement well. The percentage of the PDHa activity to the PDHt activity was calculated and taken as an index of the PDH activation.

| Compound | IC50 [1] | PDHa activity (% PDHt activity) ([2]; adipose tissue, 5 hr after oral administration) | PDHa activity (% PDHt activity) ([2]; adipose tissue, 20 hr after oral administration) | PDHa activity (% PDHt activity) ([2]; liver, 5 hr after oral administration) | PDHa activity (% PDHt activity) ([2]; liver, 20 hr after oral administration) |
| --- | --- | --- | --- | --- | --- |
| C[C@H](O)COc1cc(-c2cnn(C(C)(C)C(N)=O)c2)c2c(c1)[C@@](O)(C(F)(F)F)c1ccccc1-2 [compound (2), 2-(4-{(9R)-9-hydroxy-2-[(2S)-2-hydroxypropoxy]-9-(trifluoromethyl)-9H-fluoren-4-yl}-1H-pyrazol-1-yl)-2-methylpropanamide] | 4.9 nM | 72 ± 4 % PDHt activity | 44 ± 6 % PDHt activity | 67 ± 11 % PDHt activity | 41 ± 11 % PDHt activity |
| Cn1cc(-c2cc(OCC(C)(C)O)cc3c2-c2ccccc2[C@]3(O)C(F)(F)F)cn1 [compound (B), (9R)-2-(2-Hydroxy-2-methylpropoxy)-4-(1-methyl-1H-pyrazol-4-yl)-9-(trifluoromethyl)-9H-fluoren-9-ol, reference compound] | 7.4 nM | – | – | – | – |
